Here are results for 11 molecules from ChEMBL document CHEMBL5465560, “Selectivity Literature for EUbOPEN Chemogenomic Library” (2024).

For assay [1], the target named is T1, Ephrin type-B receptor 3 (Homo sapiens) (UniProt P54753).
T1 sequence (whole entry): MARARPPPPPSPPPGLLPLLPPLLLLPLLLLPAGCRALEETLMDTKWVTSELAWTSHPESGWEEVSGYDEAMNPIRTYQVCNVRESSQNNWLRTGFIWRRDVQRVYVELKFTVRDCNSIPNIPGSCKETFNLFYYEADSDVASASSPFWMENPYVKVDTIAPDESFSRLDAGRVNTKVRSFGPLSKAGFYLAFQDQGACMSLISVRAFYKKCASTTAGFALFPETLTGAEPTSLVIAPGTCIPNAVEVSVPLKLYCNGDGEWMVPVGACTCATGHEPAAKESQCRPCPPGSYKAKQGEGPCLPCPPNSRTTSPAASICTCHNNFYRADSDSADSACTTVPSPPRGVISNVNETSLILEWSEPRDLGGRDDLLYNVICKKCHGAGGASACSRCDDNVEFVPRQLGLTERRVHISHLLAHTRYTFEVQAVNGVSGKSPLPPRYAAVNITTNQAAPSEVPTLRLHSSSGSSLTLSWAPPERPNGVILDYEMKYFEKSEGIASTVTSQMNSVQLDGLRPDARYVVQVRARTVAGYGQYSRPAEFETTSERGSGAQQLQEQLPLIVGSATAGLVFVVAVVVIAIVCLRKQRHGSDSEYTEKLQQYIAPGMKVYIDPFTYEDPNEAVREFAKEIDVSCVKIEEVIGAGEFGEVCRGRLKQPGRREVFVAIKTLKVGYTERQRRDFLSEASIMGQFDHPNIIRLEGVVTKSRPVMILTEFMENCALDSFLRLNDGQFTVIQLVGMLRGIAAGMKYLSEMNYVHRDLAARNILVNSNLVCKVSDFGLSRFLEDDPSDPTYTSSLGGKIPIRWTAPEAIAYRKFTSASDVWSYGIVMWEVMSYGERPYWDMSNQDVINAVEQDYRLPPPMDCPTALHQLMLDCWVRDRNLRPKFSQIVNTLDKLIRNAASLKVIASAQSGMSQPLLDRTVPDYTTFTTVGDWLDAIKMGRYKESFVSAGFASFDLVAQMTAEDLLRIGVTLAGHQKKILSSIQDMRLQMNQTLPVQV
Briefly: Selectivity interaction (Upstate Kinase Profiler service (Millipore)) EUB0000056c EPHB3. Conditions: at 1 µM.

For assay [2], the target named is Tyrosine-protein kinase Lck (Homo sapiens, UniProt P06239). Briefly: Selectivity interaction (KinomeScan (DiscoverX)) EUB0000699a LCK. Conditions: at 10 µM.
For assay [3], the target named is Ephrin type-A receptor 5 (Homo sapiens) (UniProt P54756). Nature of the assay: Selectivity interaction (KinomeScan (DiscoverX)) EUB0001079a EPHA5. The note with it: at 1 µM.
Assay [4] addresses Vascular endothelial growth factor receptor 2 (Homo sapiens, UniProt P35968). Briefly: Selectivity interaction (KinomeScan (DiscoverX)) EUB0000092b KDR. Conditions: at 10 µM.
Assay [5] deals with Ribosomal protein S6 kinase alpha-6 (Homo sapiens, UniProt Q9UK32). Nature of the assay: Selectivity interaction (KinomeScan (DiscoverX)) EUB0000695a RPS6KA6. Conditions: at 100 nM.
The target in assay [6] is Sodium- and chloride-dependent GABA transporter 1 (Homo sapiens) (UniProt P30531). Briefly: Selectivity interaction (Eurofins CEREP Diversity Profile (receptors and ion channels)) EUB0000279b SLC6A1. Conditions: at 10 µM.
Sodium- and chloride-dependent GABA transporter 1 (Homo sapiens), sequence (P30531 whole entry, looked up): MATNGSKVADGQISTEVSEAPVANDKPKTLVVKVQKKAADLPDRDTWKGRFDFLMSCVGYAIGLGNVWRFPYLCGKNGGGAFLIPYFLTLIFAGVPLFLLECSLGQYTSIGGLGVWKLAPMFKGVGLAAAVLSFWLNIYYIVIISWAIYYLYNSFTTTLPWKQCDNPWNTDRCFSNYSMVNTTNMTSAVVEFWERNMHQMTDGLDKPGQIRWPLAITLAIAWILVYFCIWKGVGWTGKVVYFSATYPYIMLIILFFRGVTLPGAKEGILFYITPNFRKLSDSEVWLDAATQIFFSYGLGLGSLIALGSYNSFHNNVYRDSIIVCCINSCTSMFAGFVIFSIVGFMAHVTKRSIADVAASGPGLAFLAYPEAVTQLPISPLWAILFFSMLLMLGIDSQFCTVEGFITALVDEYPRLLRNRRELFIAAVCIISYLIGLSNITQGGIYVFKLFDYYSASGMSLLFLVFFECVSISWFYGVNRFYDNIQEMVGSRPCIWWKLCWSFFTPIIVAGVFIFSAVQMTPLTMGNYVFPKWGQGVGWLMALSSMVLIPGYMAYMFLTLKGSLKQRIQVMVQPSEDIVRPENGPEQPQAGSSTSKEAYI
The target in assay [7] is Calcium/calmodulin-dependent protein kinase kinase 2 (Homo sapiens) (UniProt Q96RR4). Nature of the assay: Selectivity interaction (KinomeScan (DiscoverX)) EUB0000045b CAMKK2.
Calcium/calmodulin-dependent protein kinase kinase 2 (Homo sapiens), sequence (Q96RR4 2-588 limits assumed): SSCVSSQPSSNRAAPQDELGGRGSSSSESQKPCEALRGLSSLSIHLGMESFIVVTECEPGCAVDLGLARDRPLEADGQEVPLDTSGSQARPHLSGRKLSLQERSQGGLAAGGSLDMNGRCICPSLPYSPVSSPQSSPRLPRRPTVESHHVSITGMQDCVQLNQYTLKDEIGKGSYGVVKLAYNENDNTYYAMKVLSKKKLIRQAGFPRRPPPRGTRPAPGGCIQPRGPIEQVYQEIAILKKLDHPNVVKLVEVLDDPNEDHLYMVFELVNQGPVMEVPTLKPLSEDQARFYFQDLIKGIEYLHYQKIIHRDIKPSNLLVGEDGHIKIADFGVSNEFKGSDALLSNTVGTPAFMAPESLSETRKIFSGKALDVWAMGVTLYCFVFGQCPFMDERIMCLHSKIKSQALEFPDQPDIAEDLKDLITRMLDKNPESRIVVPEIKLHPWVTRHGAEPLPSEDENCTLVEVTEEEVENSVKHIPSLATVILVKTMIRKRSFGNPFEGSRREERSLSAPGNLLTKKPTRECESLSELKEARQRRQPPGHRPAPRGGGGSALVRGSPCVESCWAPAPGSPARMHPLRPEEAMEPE
For assay [8], the system named is Mast/stem cell growth factor receptor Kit (Homo sapiens), P10721 [D816V]. Nature of the assay: (§1) Selectivity interaction (KinomeScan (DiscoverX)) EUB0000607a KIT. The note with it: at 10 µM.
In assay [9] the test system is Mast/stem cell growth factor receptor Kit (Homo sapiens), P10721 [L576P]. Described as §1. The note with it: at 10 µM.
Assay [10] deals with Mast/stem cell growth factor receptor Kit (Homo sapiens), P10721 [A829P]. The description is as §1. Conditions: at 10 µM.
Mast/stem cell growth factor receptor Kit (Homo sapiens), P10721 [A829P], sequence (P10721 whole entry A829P): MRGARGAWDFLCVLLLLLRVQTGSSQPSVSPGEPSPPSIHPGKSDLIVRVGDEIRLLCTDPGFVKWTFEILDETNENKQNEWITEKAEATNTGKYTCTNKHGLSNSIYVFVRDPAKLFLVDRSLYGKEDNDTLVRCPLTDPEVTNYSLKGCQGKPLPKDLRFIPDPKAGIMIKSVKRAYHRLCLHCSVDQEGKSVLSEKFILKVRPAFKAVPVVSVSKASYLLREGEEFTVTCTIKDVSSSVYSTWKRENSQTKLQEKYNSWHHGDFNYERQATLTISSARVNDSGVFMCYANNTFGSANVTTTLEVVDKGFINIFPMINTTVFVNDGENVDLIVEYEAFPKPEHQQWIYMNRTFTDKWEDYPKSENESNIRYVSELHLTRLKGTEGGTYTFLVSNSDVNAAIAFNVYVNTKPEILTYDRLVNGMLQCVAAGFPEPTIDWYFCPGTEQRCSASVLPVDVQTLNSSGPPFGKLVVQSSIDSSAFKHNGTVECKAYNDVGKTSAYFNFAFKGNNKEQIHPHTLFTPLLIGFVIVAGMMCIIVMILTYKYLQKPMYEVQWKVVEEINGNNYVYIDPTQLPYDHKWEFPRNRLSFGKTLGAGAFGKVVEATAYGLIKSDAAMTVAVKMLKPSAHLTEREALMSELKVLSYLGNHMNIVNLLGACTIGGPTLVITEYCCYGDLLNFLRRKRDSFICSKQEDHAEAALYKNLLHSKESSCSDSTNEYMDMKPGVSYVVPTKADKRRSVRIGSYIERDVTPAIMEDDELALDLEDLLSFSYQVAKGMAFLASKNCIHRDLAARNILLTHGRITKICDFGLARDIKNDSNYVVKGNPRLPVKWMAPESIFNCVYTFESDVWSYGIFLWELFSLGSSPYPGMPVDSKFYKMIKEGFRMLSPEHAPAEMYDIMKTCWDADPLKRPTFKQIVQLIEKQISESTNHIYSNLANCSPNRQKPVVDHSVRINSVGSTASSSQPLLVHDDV
For assay [11], the system named is Mast/stem cell growth factor receptor Kit (Homo sapiens), P10721 [D816H]. Described as §1. Conditions: at 10 µM.
In assay [12] the target is Mast/stem cell growth factor receptor Kit (Homo sapiens, UniProt P10721). The assay is described as §1. The note with it: at 10 µM.
The test system of assay [13] is Mast/stem cell growth factor receptor Kit (Homo sapiens), P10721 [V559D,T670I]. Described as §1. The note with it: at 10 µM.
Assay [14] deals with Mast/stem cell growth factor receptor Kit (Homo sapiens), P10721 [V559D,V654A]. The assay is described as §1. Conditions: at 10 µM.
Mast/stem cell growth factor receptor Kit (Homo sapiens), P10721 [V559D,V654A], sequence (P10721 whole entry V559D/V654A): as the sequence (P10721 whole entry A829P) above, with V559D, V654A, P829A counted along it
Assay [15] deals with Mast/stem cell growth factor receptor Kit (Homo sapiens), P10721 [V559D]. Described as §1. The note with it: at 10 µM.
Assay [16] has as its target T2, Serine/threonine-protein kinase tousled-like 1 (Homo sapiens) (UniProt Q9UKI8).
T2 sequence (whole entry): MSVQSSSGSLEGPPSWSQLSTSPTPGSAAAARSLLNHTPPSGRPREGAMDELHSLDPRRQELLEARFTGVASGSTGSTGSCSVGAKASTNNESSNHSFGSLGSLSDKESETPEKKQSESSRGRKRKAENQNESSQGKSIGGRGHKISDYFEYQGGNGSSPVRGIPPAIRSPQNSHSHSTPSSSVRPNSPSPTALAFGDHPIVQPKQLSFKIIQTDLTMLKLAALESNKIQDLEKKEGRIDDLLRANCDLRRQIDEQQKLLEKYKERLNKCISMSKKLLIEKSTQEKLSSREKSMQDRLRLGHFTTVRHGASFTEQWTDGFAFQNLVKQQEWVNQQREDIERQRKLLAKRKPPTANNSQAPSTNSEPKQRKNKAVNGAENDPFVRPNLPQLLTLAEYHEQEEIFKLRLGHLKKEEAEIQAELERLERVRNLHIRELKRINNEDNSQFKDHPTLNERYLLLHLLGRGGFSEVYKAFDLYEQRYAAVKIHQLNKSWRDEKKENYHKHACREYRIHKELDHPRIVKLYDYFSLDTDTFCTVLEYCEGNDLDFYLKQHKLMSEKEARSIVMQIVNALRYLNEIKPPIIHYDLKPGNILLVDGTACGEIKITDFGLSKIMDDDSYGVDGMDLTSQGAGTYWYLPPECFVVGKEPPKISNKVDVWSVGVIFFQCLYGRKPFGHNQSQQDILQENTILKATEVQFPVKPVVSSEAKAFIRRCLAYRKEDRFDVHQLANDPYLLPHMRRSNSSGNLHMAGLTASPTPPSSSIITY
Nature of the assay: Selectivity interaction (ActivX KiNativ screen (kinase selectivity in THP-1 cell lysates)) EUB0000639a TLK1. The note with it: lysate, at 1 µM. Type of assay: subcellular.

In assay [17] the target is Protein-tyrosine kinase 2-beta (Homo sapiens) (UniProt Q14289). Briefly: Selectivity interaction (KinomeScan (DiscoverX)) EUB0000229b PTK2B. The note with it: at 10 µM.
Assay [18] deals with Phosphorylase b kinase gamma catalytic chain, skeletal muscle/heart isoform (Homo sapiens) (UniProt Q16816). Nature of the assay: Selectivity interaction (KinomeScan (DiscoverX)) EUB0000229b PHKG1. The note with it: at 10 µM.
Phosphorylase b kinase gamma catalytic chain, skeletal muscle/heart isoform (Homo sapiens), sequence (Q16816 whole entry, looked up, canonical isoform): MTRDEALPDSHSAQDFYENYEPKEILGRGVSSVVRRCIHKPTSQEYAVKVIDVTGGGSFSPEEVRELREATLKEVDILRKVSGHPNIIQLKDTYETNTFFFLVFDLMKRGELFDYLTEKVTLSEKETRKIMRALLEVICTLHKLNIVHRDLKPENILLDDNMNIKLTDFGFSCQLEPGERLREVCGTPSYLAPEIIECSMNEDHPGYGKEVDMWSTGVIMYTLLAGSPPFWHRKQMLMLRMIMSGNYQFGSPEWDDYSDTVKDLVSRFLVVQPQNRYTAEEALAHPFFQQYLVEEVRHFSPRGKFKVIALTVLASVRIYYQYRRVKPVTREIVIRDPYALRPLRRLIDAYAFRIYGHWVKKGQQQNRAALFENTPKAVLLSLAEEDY
Assay [19] addresses Activated CDC42 kinase 1 (Homo sapiens, UniProt Q07912). Nature of the assay: Selectivity interaction (ActivX KiNativ screen (ex vivo kinase selectivity in human PBMCs)) EUB0001619a TNK2. It is filed as cell-based. Conditions: PBMC, at 1 µM.

Vascular endothelial growth factor receptor 2, sequence (P35968 whole entry): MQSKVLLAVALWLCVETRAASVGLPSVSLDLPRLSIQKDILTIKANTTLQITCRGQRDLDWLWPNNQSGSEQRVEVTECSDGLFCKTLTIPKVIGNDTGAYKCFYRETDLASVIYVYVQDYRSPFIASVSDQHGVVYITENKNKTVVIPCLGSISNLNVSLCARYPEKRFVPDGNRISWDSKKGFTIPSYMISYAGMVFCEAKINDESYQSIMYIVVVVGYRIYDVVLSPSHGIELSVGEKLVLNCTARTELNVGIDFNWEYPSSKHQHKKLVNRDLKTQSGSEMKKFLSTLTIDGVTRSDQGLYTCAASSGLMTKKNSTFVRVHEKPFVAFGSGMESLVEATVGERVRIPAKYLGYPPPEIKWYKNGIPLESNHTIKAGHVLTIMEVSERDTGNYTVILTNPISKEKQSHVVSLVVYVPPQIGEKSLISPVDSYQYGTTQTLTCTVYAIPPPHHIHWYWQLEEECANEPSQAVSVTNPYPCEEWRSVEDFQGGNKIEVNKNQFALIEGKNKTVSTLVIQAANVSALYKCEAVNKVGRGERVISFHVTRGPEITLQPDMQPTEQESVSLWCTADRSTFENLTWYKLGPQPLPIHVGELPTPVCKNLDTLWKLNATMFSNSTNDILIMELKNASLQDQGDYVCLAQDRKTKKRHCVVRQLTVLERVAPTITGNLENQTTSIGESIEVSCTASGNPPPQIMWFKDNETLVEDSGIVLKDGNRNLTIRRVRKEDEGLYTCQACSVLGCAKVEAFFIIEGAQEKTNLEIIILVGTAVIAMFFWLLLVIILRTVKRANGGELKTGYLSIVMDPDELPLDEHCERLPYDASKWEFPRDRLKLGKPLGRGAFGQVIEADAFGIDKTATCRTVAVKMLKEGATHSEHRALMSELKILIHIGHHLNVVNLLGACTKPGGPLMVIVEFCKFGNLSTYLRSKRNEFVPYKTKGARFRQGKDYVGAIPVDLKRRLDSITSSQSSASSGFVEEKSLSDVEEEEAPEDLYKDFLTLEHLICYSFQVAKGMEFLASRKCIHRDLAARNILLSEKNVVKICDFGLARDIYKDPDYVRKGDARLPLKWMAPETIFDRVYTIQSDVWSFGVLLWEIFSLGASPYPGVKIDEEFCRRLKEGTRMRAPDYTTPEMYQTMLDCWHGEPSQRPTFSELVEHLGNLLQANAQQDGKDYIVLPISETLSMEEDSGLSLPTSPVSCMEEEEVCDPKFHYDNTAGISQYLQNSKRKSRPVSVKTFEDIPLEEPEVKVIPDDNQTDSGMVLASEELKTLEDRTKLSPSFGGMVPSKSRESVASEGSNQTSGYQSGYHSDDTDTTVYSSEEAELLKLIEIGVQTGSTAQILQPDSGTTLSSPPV

In the case of `Cc1ccc(-c2ccc3c(ccc4sc5c(c43)NC[C@@H](C)NC5=O)n2)cn1`, in assay [1], the % of inhibition was -22%.
Regarding `CCN(CC)CCCCNc1ncc2cc(-c3cc(OC)cc(OC)c3)c(NC(=O)NC(C)(C)C)nc2n1`, in [2], the % of control was 22%.
On to `Nc1cnc(N2CCc3cc(S(=O)(=O)Nc4c(F)cc(Cl)cc4F)cc(N4CCCC4=O)c32)nc1` [TP-020n], for which the % of control in assay [3] stood at 100%.
On to `CCC(=O)N1CCN(c2ccc(-n3c(=O)ccc4cnc5ccc(-c6cnc7ccccc7c6)cc5c43)cc2C(F)(F)F)CC1`, for which the % of control in [4] was 65%.
On to `Cc1cc(F)c(C(=O)Nc2cccc(-c3nncn3C(C)C)n2)cc1-n1cnc(C2CC2)c1`, for which, in assay [5], the % of control came out at 22%.
Turning to `CC(=O)c1cc(-c2ccccc2OCC2CC2)c2ncccn12`, in [6], the % of control came to 107%.
Turning to `C=CC(=O)Nc1cc(-n2c(=O)ccc3cnc4ccc(-c5ccc(NS(C)(=O)=O)cc5)cc4c32)ccc1C`, the % of control was 100% in assay [7] (at 1 µM) and 92% in [7] (at 10 µM).
As to `CNC(=O)Nc1ccc(-c2nc(N3CC4CCC(C3)O4)c3cnn(C4CCC5(CC4)OCCO5)c3n2)cc1`, the % of control in [8] was 82%; in assay [9], 85%; in assay [10], 89%; in assay [11] it was 86%; in [12], 91%; in assay [13], 100%. Besides, the results for the % of control in assay [14] and in assay [15] were 100% and 85%, respectively.
For `CC[C@@H]1[C@H](F)C(=O)N[C@@H]1COc1nccc2cc(C(N)=O)c(OC)cc12` [ZIMLOVISERTIB], in [16], the % of inhibition worked out at 34.3%.
On to `COc1cc(N(C)c2ccnc3ccc(C(F)(F)F)cc23)cc(OC)c1OC`, for which the % binding in assay [17] is 95%; in assay [18], 100%.
As for `N#Cc1cccc(-c2c[nH]c3ncnc(N4CCOCC4)c23)c1`, the % of inhibition in [19] came to 8%.
